Test results reported in patent US20240384268A1, “Oligonucleotides” (Hudson Institute of Medical Research, priority 2021, published 2024).

Biological target: T1, human TLR7 (Homo sapiens, UniProt Q9NYK1)
T1 construct: HA; host or cells: 293XL-hTLR7-HA (HEK293)
T1 sequence (Q9NYK1 27-1049): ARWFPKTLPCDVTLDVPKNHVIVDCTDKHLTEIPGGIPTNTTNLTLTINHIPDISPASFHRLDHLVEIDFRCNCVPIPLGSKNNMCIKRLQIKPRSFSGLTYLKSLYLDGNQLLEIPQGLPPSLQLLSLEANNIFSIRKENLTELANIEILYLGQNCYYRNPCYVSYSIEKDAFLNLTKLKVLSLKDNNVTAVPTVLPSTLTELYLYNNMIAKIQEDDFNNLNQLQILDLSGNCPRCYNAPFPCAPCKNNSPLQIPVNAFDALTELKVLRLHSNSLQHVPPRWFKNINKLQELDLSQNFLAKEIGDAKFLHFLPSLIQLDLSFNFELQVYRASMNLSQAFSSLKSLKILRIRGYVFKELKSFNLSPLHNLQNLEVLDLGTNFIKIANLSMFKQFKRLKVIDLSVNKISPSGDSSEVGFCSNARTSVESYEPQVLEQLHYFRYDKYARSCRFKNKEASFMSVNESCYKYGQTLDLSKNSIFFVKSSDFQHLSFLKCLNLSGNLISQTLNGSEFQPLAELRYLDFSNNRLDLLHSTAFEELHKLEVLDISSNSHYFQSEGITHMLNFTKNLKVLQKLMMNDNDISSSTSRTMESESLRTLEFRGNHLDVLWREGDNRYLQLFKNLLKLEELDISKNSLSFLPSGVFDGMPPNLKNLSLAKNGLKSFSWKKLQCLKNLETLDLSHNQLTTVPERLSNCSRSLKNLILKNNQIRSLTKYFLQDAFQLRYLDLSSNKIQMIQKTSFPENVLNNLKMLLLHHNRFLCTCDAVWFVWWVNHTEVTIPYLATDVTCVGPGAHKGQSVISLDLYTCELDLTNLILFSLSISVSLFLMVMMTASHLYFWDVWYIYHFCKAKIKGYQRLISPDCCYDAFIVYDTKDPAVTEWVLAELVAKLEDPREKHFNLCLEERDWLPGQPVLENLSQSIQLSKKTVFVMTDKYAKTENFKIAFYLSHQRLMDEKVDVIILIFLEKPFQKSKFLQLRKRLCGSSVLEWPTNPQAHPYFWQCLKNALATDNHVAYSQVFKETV
Test: HEK-TLR7 NF-κB-luciferase reporter, R848 stimulation
Assay type: cell-based
Conditions: averaged NF-κB-Luciferase relative to R848 condition; for TLR7 100 nM: MOE-modified ASO at 100 nM; for TLR7 500 nM: MOE-modified ASO at 500 nM

Sequence | TLR7 100 nM | TLR7 500 nM
ACCCACTTGGCAGACCATCA (antisense; 2'-MOE modified, pattern not given here) [CTNN2B-1575 MOE] | 0.473 | 0.336
ATCCAACACTTCGTGGGGTC (antisense; 2'-MOE modified, pattern not given here) [HPRT-668 MOE] | 0.758 | 0.611
GCGGAGGTCTTGGCTTCGTG (antisense; 2'-MOE modified, pattern not given here) [MB21D1-526 MOE] | 0.453 | 0.154
TTGCACACTTCGTACCCAAA (antisense; 2'-MOE modified, pattern not given here) [CAMSAP1-4915 MOE] | 0.418 | 0.233
ACAACCCCTTTCACCATCCC (antisense; 2'-MOE modified, pattern not given here) [MB21D1-689 MOE] | 0.593 | 0.533
GGTGGTGGCCACCCATCTCA (antisense; 2'-MOE modified, pattern not given here) [CTNN2B-2479 MOE] | 0.480 | 0.192
ATGTCCCGCCACTGGATGCT (antisense; 2'-MOE modified, pattern not given here) [EGFR-727 MOE] | 0.397 | 0.171
TCAAAGGACTGAGGAAAGGG (antisense; 2'-MOE modified, pattern not given here) [CAMSAP1-6273 MOE] | 0.397 | 0.189
TGTCCTTGCACGTGGCTTCG (antisense; 2'-MOE modified, pattern not given here) [EGFR-1014 MOE] | 0.029 | 0.057
TGTCTTCATCGGCCCTGCCT (antisense; 2'-MOE modified, pattern not given here) [CAMSAP1-2112 MOE] | 0.396 | 0.185
GTCTTGGCTTCGTGGAGCAG (antisense; 2'-MOE modified, pattern not given here) [MB21D1-520 MOE] | 0.372 | 0.095
CTCTTGAAGCATCGTATCAC (antisense; 2'-MOE modified, pattern not given here) [CTNN2B-3648 MOE] | 0.609 | 0.341
GGTGGTCCACAACCCCTTTC (antisense; 2'-MOE modified, pattern not given here) [MB21D1-697 MOE] | 0.620 | 0.097
ATGTCCCCTGTTGACTGGTC (antisense; 2'-MOE modified, pattern not given here) [HPRT-489 MOE] | 0.426 | 0.224
TTGGCTCGGCTTGCCTACTT (antisense; 2'-MOE modified, pattern not given here) [CAMSAP1-5594 MOE] | 0.523 | 0.204
GCTTCAGGCGCTGCCTTGCC (antisense; 2'-MOE modified, pattern not given here) [CAMSAP1-2709 MOE] | 0.527 | 0.196
